These results are taken from patent US9243020B2, “Selective glycosidase inhibitors and uses thereof” (priority 2010, dated 2016).

One data set addresses human O-GlcNAcase (Homo sapiens (Human), UniProt O60502). Description: Assay for determination of Ki values for inhibition of O-GlcNAcase activity (fluorescence-based). In kind it is biochemical. Particulars: purified human O-GlcNAcase 0.7 nM, 2 mM 4-methylumbelliferyl N-acetyl-β-D-glucosaminide, pH 7.0, Cheng-Prusoff; read-out: Fluorescence-based hOGA Ki.
The nature of data set [1]: Assay for determination of apparent permeability (Papp), bi-directional transport. Type of data set: in vitro ADME. The conditions noted are these: pig, LLC-PK1; 1 μM test compound, t=3 h, average of A to B and B to A; read-out: Papp LLC-PK-1 cells. As for the experimental part:
Bi-directional transport was evaluated in LLC-PK1 cells in order to determine apparent permeability (Papp). LLC-PK1 cells can form a tight monolayer and therefore can be used to assess vectorial transport of compounds from basolateral to apical (B→A) and from apical to basolateral (A→B).
To determine Papp, LLC-PK1 cells were cultured in 96-well transwell culture plates (Millipore). Solutions containing the test compounds (1 μM) were prepared in Hank's Balanced Salt Solution with 10 mM HEPES. Substrate solution (150 μL) was added to either the apical (A) or the basolateral (B) compartment of the culture plate, and buffer (150 μL) was added to the compartment opposite to that containing the compound. At t=3 h, 50 μL samples were removed from both sides of monolayers dosed with test compound and placed in 96 well plates, scintillant (200 μL) or internal standard (100 μL labetolol 104) was added to the samples and concentration was determined by liquid scintillation counting in a MicroBeta Wallac Trilux scintillation counter (Perkin Elmer Life Sciences, Boston, Mass.) or by LCMS/MS (Applied Biosystems SCIEX API 5000 triple quadruple mass spectrometer). [^3H]Verapamil (1 μM) was used as the positive control. The experiment was performed in triplicate.
The apparent permeability, Papp, was calculated by the following formula for samples taken at t=3 h:
[formula] Where: Volume of Receptor Chamber was 0.15 mL; Area of membrane was 0.11 cm^2; the Initial Concentration is the sum of the concentration measured in the donor plus concentration measured in receiver compartments at t=3 h; Δ in Concentration is concentration in the receiver compartment at 3 h; and Δ in Time is the incubation time (3×60×60=10800 s). Papp was expressed as 10^−6 cm/s. The Papp (LLC-PK1 cells) are the average of the Papp for transport from A to B and Papp for transport from B to A at t=3 h: […]

In data set [2] the test system is O-GlcNAcylated protein in rat PC-12 cells. Nature of the data set: Cell-based ELISA for cellular activity of O-GlcNAcase inhibitors (RL-2 antibody). Particulars: 24 h treatment, increase in O-GlcNAcylated protein detected with RL-2 antibody.
Description: Inhibition of O-GlcNAcase, which removes O-GlcNAc from cellular proteins, results in an increase in the level of O-GlcNAcylated protein in cells. An increase in O-GlcNAcylated protein can be measured by an antibody, such as RL-2, that binds to O-GlcNAcylated protein. The amount of O-GleNAcylated protein:RL2 antibody interaction can be measured by enzyme linked immunosorbant assay (ELISA) procedures.
A variety of tissue culture cell lines, expressing endogenous levels of O-GlcNAcase, can be utilized; examples include rat PC-12, and human U-87, or SK-N-SH cells. In this assay,rat PC-12 cells were plated in 96-well plates with approximately 10,000 cells/well. Compounds to be tested were dissolved in DMSO, either 2 or 10 mM stock solution, and then diluted with DMSO and water in a two-step process using a Tecan workstation. […] To prepare a cell lysate, the media from compound treated cells was removed, the cells were washed once with phosphate buffered saline (PBS) and then lysed for 5 minutes at room temperature in 50 μL of Phosphosafe reagent (Novagen Inc, Madison, Wis.) with protease inhibitors and PMSF. The cell lysate was collected and transferred to a new plate, which was then either coated to assay plates directly or frozen −80° C. until used in the ELISA procedure. If desired, the total protein concentration of samples was determined using 20 μL of the sample using the BCA method.
The ELISA portion of the assay was performed in a black Maxisorp 96-well plate that was coated overnight at 4° C. with 100 μL/well of the cell lysate (1:10 dilution of the lysate with PBS containing protease inhibitors, phosphatase inhibitors, and PMSF). The following day the wells were washed 3 times with 300 μL/well of Wash buffer (Tris-buffered saline with 0.1% Tween 20). The wells were blocked with 100 μl/well Blocking buffer (Tris buffered saline w/0.05% Tween 20 and 2.5% Bovine serum albumin). Each well was then washed two times with 300 μL/well of wash buffer. […] The plate was sealed and incubated at 37° C. for 2 h with gentle shaking. The wells were then washed 3-times with 300 μL/well wash buffer. […] The plate was incubated for 60 min at 37° C. with gentle shaking. Each well was then washed 3-times with 300 μL/well wash buffer. The detection reagent was added, 100 μL/well of Amplex Ultra RED reagent (prepared by adding 30 μL of 10 mM Amplex Ultra Red stock solution to 10 mL PBS with 18 μL 3% hydrogen peroxide, H2O2). The detection reaction was incubated for 15 minutes at room temperature and then read with excitation at 530 nm and emission at 590 nm.
The amount of O-GlcNAcylated protein, as detected by the ELISA assay, was plotted for each concentration of test compound using standard curve fitting algorithms for sigmoidal dose response curves. The values for a four parameter logistic curve fit of the data were determined, with the inflection point of the curve being the potency value for the test compound.

Chain of human O-GlcNAcase (O60502 whole entry): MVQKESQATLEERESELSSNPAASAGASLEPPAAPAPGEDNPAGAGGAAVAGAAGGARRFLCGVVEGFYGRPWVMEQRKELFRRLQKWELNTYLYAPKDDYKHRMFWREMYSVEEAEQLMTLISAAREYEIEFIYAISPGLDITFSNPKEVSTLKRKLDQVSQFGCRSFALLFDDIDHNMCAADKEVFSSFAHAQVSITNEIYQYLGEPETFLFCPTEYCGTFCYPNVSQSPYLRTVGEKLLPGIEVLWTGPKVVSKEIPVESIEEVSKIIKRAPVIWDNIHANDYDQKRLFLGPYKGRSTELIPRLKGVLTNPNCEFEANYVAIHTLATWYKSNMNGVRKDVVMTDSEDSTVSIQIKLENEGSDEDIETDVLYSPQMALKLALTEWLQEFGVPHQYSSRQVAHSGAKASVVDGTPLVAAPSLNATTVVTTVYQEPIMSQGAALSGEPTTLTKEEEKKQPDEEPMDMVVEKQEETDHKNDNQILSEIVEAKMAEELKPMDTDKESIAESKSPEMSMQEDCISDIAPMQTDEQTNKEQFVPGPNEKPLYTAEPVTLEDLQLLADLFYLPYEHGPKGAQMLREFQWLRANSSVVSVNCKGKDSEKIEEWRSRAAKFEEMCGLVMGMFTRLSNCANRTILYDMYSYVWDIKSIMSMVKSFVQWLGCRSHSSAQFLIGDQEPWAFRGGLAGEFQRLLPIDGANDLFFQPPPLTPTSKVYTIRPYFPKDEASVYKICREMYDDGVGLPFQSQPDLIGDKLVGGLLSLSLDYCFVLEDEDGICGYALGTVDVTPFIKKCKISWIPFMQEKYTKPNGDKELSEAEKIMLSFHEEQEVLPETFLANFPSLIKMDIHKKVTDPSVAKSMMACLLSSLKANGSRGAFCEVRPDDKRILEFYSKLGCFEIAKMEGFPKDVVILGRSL
Protocol for human O-GlcNAcase: Experimental procedure for kinetic analyses: Enzymatic reactions were carried out in a reaction containing 50 mM NaH2PO4, 100 mM NaCl and 0.1% BSA (pH 7.0) using 2 mM 4-Methylumbelliferyl N-acetyl-β-D-glucosaminide dihydrate (Sigma M2133) dissolved in ddH2O, as a substrate. The amount of purified human O-GlcNAcase enzyme used in the reaction was 0.7 nM. Test compound of varying concentrations was added to the enzyme prior to initiation of the reaction. The reaction was performed at room temperature in a 96-well plate and was initiated with the addition of substrate. […] The slope of product production was determined for each concentration of compound tested and plotted, using standard curve fitting algorithms for sigmoidal dose response curves. The values for a four parameter logistic curve fit of the data were determined.

As for `CN(C)C1=N[C@@H]2[C@@H](O)[C@H](O)[C@@H](CO)O[C@@H]2S1` [(3aR,5R,6S,7R,7aR)-2-(dimethylamino)-5-(hydroxymethyl)-5,6,7,7a-tetrahydro-3aH-pyrano[3,2-d]thiazole-6,7-diol, reference compound], the Ki at human O-GlcNAcase is 0.3 nM. Also, the apparent permeability coefficient (Papp) at 3 h, 1 μM in data set [1] is less than 1 ×10⁻⁶ cm/s. Besides, in data set [2], the EC50 turned out to be 10 nM.

`CCNC1=N[C@@H]2[C@@H](O)[C@H](O)[C@@H](CO)O[C@@H]2S1` [(3aR,5R,6S,7R,7aR)-2-(ethylamino)-5-(hydroxymethyl)-5,6,7,7a-tetrahydro-3aH-pyrano[3,2-d]thiazole-6,7-diol, reference compound]: the apparent permeability coefficient (Papp) at 3 h, 1 μM in data set [1] was less than 1 ×10⁻⁶ cm/s.

Regarding `CCNC1=N[C@@H]2[C@@H](O)[C@H](O)[C@@H](C)O[C@@H]2S1` [Example 1, (3aR,5R,6S,7R,7aR)-2-(ethylamino)-5-methyl-5,6,7,7a-tetrahydro-3aH-pyrano[3,2-d]thiazole-6,7-diol], on human O-GlcNAcase, the Ki is 70 nM.

For `CCNC1=N[C@@H]2C[C@H](O)[C@@H](CO)O[C@@H]2S1` [Example 2, (3aR,5R,6S,7aR)-2-(ethylamino)-5-(hydroxymethyl)-5,6,7,7a-tetrahydro-3aH-pyrano[3,2-d]thiazol-6-ol], the Papp at 3 h, 1 μM in data set [1] came out at 3.8 ×10⁻⁶ cm/s.

In the case of `CNC1=N[C@@H]2[C@@H](F)[C@H](O)[C@@H](CO)O[C@@H]2S1` [Example 9, (3aR,5R,6R,7R,7aR)-7-fluoro-5-(hydroxymethyl)-2-(methylamino)-5,6,7,7a-tetrahydro-3aH-pyrano[3,2-d]thiazol-6-ol], the Ki at human O-GlcNAcase stood at 1.3 nM. The compound further came in with an EC50 in data set [2] of 307 nM.

As for `CNC1=N[C@@H]2[C@@H](O)[C@H](O)[C@@H](CF)O[C@@H]2S1` [Example 17, (3aR,5S,6S,7R,7aR)-5-(fluoromethyl)-2-(methylamino)-5,6,7,7a-tetrahydro-3aH-pyrano[3,2-d]thiazole-6,7-diol], the Ki on human O-GlcNAcase turned out to be 0.5 nM. Moreover, the apparent permeability (Papp) at 3 h, 1 μM in data set [1] was determined as 7.1 ×10⁻⁶ cm/s. This compound registered an EC50 in data set [2] of 34 nM.

Turning to `CCNC1=N[C@@H]2[C@@H](O)[C@H](O)[C@@H](C(F)F)O[C@@H]2S1` [Example 19, (3aR,5S,6S,7R,7aR)-5-(difluoromethyl)-2-(ethylamino)-5,6,7,7a-tetrahydro-3aH-pyrano[3,2-d]thiazole-6,7-diol], the Ki at human O-GlcNAcase amounted to 5.7 nM. For the same compound, the Papp at 3 h, 1 μM in data set [1] was determined as 6 ×10⁻⁶ cm/s. Further, the EC50 in data set [2] came to 53 nM.

For `CN(C)C1=N[C@@H]2[C@@H](O)[C@H](O)[C@@H](C(F)F)O[C@@H]2S1` [Example 20, (3aR,5S,6S,7R,7aR)-5-(difluoromethyl)-2-(dimethylamino)-5,6,7,7a-tetrahydro-3aH-pyrano[3,2-d]thiazole-6,7-diol], the Ki on human O-GlcNAcase came out at 1.4 nM. The Papp at 3 h, 1 μM in data set [1] is 13.7 ×10⁻⁶ cm/s. This compound also returned an EC50 in data set [2] of 6 nM.

For `CNC1=N[C@@H]2C[C@H](O)[C@@H](C(F)F)O[C@@H]2S1` [Example 27, (3aR,5S,6S,7aR)-5-(difluoromethyl)-2-(methylamino)-5,6,7,7a-tetrahydro-3aH-pyrano[3,2-d]thiazol-6-ol], the Ki on human O-GlcNAcase was 28 nM. Besides, the Papp at 3 h, 1 μM in data set [1] turned out to be 24 ×10⁻⁶ cm/s.

Turning to `CCNC1=N[C@@H]2[C@@H](O)[C@@H](O)[C@@H](C(F)F)O[C@@H]2S1` [Example 29, (3aR,5S,6R,7R,7aR)-5-(difluoromethyl)-2-(ethylamino)-5,6,7,7a-tetrahydro-3aH-pyrano[3,2-d]thiazole-6,7-diol], the Ki on human O-GlcNAcase was 164 nM.

With `CNC1=N[C@@H]2[C@H](F)[C@H](O)[C@@H](C(F)F)O[C@@H]2S1` [Example 33, (3aR,5S,6R,7S,7aR)-5-(difluoromethyl)-7-fluoro-2-(methylamino)-5,6,7,7a-tetrahydro-3aH-pyrano[3,2-d]thiazol-6-ol], the inhibitory constant (Ki) on human O-GlcNAcase is 13 nM. In addition, the Papp at 3 h, 1 μM in data set [1] is 20.1 ×10⁻⁶ cm/s.
